This passage reports IC50 results from patent publication US8304447B2, “2-acylaminopropoanol-type glucosylceramide synthase inhibitors” (Genzyme Corporation, priority 2007, dated 2012).

Structures are written as SMILES.

In the first experiment the test system is GM3. The experiment in a line: GM3 Elisa assay. In kind it is cell-based. The settings on record: 48 h, Table 1; B16-FO cells, 2 days incubation; read-out: IC50_uM_Mean. Put shortly: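 Cellular GM3 ELISA: fixed cells probed with monoclonal anti-GM3 (NeuAc), HRP-conjugated anti-IgM and fluorogenic Quantablu substrate, read at Ex 325/Em 420. Cells were B16-FO, treated 2 days after a 6 h attachment on collagen-coated wells.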
With `O=C(CCCCCCCCCCCc1cccnc1)N[C@H](CN1CCCC1)[C@H](O)c1ccc2c(c1)OCCO2` [Compound 305], the IC50 was ≤ 0.1 µM.

Consider `O=C(Nc1ccc(OC(F)(F)F)cc1)N[C@H](CN1CCCC1)[C@H](O)c1ccc2c(c1)OCCO2` [Compound 82, 1-((1R,2R)-1-(2,3-dihydrobenzo[β][1,4]dioxin-6-yl)-1-hydroxy-3-(pyrrolidin-1-yl)propan-2-yl)-3-(4-(trifluoromethoxy)phenyl)urea], for which the IC50 is ≤ 0.1 µM.

Turning to `C[C@H](NC(=O)N[C@H](CN1CCCC1)[C@H](O)c1ccc2c(c1)OCCO2)c1cccc2ccccc12` [Compound 71, 1-((1R,2R)-1-(2,3-dihydrobenzo [β][1,4]dioxin-6-yl)-1-hydroxy-3-(pyrrolidin-1-yl)propan-2-yl)-3-((S)-1-(naphthalen-1-yl)ethyl)urea], the IC50 fell in the range of 0.1 to 1 µM.

As to `CC(C)Oc1ccc(C(=O)CCCCC(=O)N[C@H](CN2CCCC2)[C@H](O)c2ccc3c(c2)OCCO3)cc1` [Compound 181, N-((1R,2R)-1-(2,3-dihydrobenzo[b][1,4]dioxin-6-yl)-1-hydroxy-3-(pyrrolidin-1-yl)propan-2-yl)-6-(4-isopropoxyphenyl)-6-oxohexanamide], the IC50 was ≤ 0.1 µM.

`O=C(Cc1ccc(-c2ccc(Cl)cc2)cc1)N[C@H](CN1CCCC1)[C@H](O)c1ccc2c(c1)OCCO2` [Compound 48, 2-(4′-chlorobiphenyl-4-yl)-N-((1R, 2R)-1-(2,3-dihydrobenzo[β][1,4]dioxin-6-yl)-1-hydroxy-3-(pyrrolidin-1-yl)propan-2-yl)acetamide]: the IC50 is ≤ 0.1 µM.

As to `O=C(Cc1cccc(F)c1)N[C@H](CN1CCCC1)[C@H](O)c1ccc2c(c1)OCCO2` [Compound 53, N-((1R,2R)-1-(2,3-dihydrobenzo[β][1,4]dioxin-6-yl)-1-hydroxy-3-(pyrrolidin-1-yl)propan-2-yl)-2-(3-fluorophenyl)acetamide], the IC50 lay within 1 to 3 µM.

Regarding `O=C(Nc1ccc(-c2ccccc2)cc1)N[C@H](CN1CCCC1)[C@H](O)c1ccc2c(c1)OCCO2` [Compound 70, 1-(biphenyl-4-yl)-3-((1R,2R)-1-(2,3-dihydrobenzo[β][1,4]dioxin-6-yl)-1-hydroxy-3-(pyrrolidin-1-yl)propan-2-yl)urea], the IC50 was ≤ 0.1 µM.

Still in this experiment, the particulars now being: 48 h, Table 2; B16-FO cells, 2 days incubation; read-out: IC50_uM_Mean.
Turning to `CCCCCCCC(=O)N[C@H](CN1CCC(F)C1)[C@H](O)c1ccc2c(c1)OCCO2` (stereo partly drawn) [Compound 322], the IC50 is 0.1 to 1 µM.

For `COc1ccc(OCCC(=O)N[C@H](CN2CCCC2)[C@H](O)c2ccc3c(c2)OCO3)cc1` [Compound 259], the IC50 was ≤ 0.1 µM.

On to `COc1ccc([C@@H](O)[C@@H](CN2CCCC2)NC(=O)CCCCC(=O)c2ccc(OC(C)C)cc2)cc1` [Compound 272], for which the IC50 was ≤ 0.1 µM.

For `COc1ccc([C@@H](OC(=O)Cc2ccc(C(F)(F)F)cc2)[C@@H](CN2CCCC2)NC(=O)Cc2ccc(C(F)(F)F)cc2)cc1` [Compound 250], the IC50 fell in the range of 0.1 to 1 µM.

Staying with this experiment, now noted: Table 3 (IC 50 Values); B16-FO cells; read-out: IC50_uM_Mean.
Consider `O=C(COC1CCCCC1)N[C@H](CN1CCCC1)[C@H](O)c1ccc2c(c1)OCCO2` [Compound 645], for which the IC50 is 3 to 10 µM.

With `O=C(N[C@H](CN1CCCC1)[C@H](O)c1ccc2c(c1)OCCO2)C1CC[C@@H](C(=O)c2ccc(F)cc2)C1` (stereo partly drawn) [Compound 635], the IC50 lay in the range of 3 to 10 µM.

`O=C(N[C@H](CN1CCCC1)[C@H](O)c1ccc2c(c1)OCCO2)C1(C(=O)c2ccc(F)cc2)CC1` [Compound 638]: the IC50 lay in the range of 3 to 10 µM.

Take `COc1ccc(C(=O)CCCCC(=O)N(CC(=O)c2ccc(OC)cc2)[C@H](CN2CCCC2)[C@H](O)c2ccc(O)cc2)cc1` [Compound 424]: the IC50 was 3 to 10 µM.

Turning to `COc1ccc(C(=O)CCCC(=O)N[C@H](CN2CCCC2)[C@H](O)c2ccc(-c3ccccc3)cc2)cc1` [Compound 696], the IC50 lay in the range of 1 to 3 µM.

As for `CCCCCCOc1ccc([C@@H](O)[C@@H](CN2CC[C@@H](F)C2)NC(=O)CCCCC(=O)c2ccc(OC)cc2)cc1` [Compound 369], the IC50 was ≤ 0.1 µM.

Consider `COc1ccc(C(=O)CCCCCC(=O)N[C@H](CN2C(C)CCCC2C)[C@H](O)c2ccc3c(c2)OCCO3)cc1` (stereo partly drawn) [Compound 602], for which the IC50 fell in the range of 3 to 10 µM.

`CCCCCCCC(=O)N[C@H](CN1[C@H](C)CC[C@H]1C)[C@H](O)c1ccc2c(c1)OCCO2` [Compound 549]: the IC50 lay in the range of 3 to 10 µM.

For the compound `O=C(CCOc1ccc(F)cc1)N[C@H](CN1C2CCC1CC2)[C@H](O)c1ccc2c(c1)OCCO2` [Compound 473], the IC50 is ≤ 0.1 µM.

For `COc1ccc(C(=O)CCCCCC(=O)N[C@H](CN2CCCC2)[C@H](O)c2ccc(OCc3ccccc3)cc2)cc1` [Compound 704], the IC50 is ≤ 0.1 µM.

For `COc1ccc(OCCC(=O)N[C@H](CN2CC3CC3C2)[C@H](O)c2ccc3c(c2)OCCO3)cc1` (stereo partly drawn) [Compound 516], the IC50 lay in the range of 0.1 to 1 µM.

On to `COc1ccc(OCCC(=O)N[C@H](CN2CCC(C)(C)C2)[C@H](O)c2ccc3c(c2)OCCO3)cc1` [Compound 519], for which the IC50 fell in the range of 3 to 10 µM.

For the compound `O=C(N[C@H](CN1CCCC1)[C@H](O)c1ccc(Cl)cc1)OCc1ccccc1` [Compound 379], the IC50 fell in the range of 0.1 to 1 µM.

`CC(O)(CCCCCC(=O)N[C@H](CN1CCCC1)[C@H](O)c1ccc2c(c1)OCCO2)C1CCCC1` (stereo partly drawn) [Compound 633]: the IC50 was 0.1 to 1 µM.

Turning to `CCCCCCCC(=O)N[C@H](CN1CCC(C)(C)C1)[C@H](O)c1ccc2c(c1)OCCO2` [Compound 521], the IC50 lay in the range of 3 to 10 µM.

Consider `COc1ccc(OCCC(=O)N[C@H](CN2CC[C@H](O)C2)[C@H](O)c2ccc(OC(C)C)cc2)cc1` [Compound 447], for which the IC50 is ≤ 0.1 µM.

For the compound `COc1ccc(C(=O)CCCCCC(=O)N[C@H](CN2CCC(F)CC2)[C@H](O)c2ccc3c(c2)OCCO3)cc1` [Compound 626], the IC50 lay in the range of 0.1 to 1 µM.

As for `CCCCOc1ccc([C@@H](O)C(CN2CC[C@H](O)C2)NC(=O)CCCCCCCOC)cc1` (stereo partly drawn) [Compound 592], the IC50 was ≤ 0.1 µM.

For the compound `O=C(CCCCOCC(F)(F)F)N[C@H](CN1CCCC1)[C@H](O)c1ccc2c(c1)OCCO2` [Compound 617], the IC50 lay in the range of 1 to 3 µM.

As for `COc1ccc(C(=O)CCCCCC(=O)N[C@H](CN2CC[C@@H](O)C2)[C@H](O)c2ccc3c(c2)OCCO3)cc1` [Compound 518], the IC50 was 0.1 to 1 µM.

As for `COc1ccc(CN(C(=O)CCCCC(=O)c2ccc(OC)cc2)[C@H](CN2CCCC2)[C@H](O)c2ccc(O)cc2)cc1` [Compound 426], the IC50 was 3 to 10 µM.

Regarding `O=C(CCCCC(=O)C1CCOCC1)N[C@H](CN1CCCC1)[C@H](O)c1ccc2c(c1)OCCO2` [Compound 556], the IC50 lay within 3 to 10 µM.

Turning to `CCCCCCCC(=O)N[C@H](CN1CCCC1)[C@H](O)c1ccc(-c2ccccc2)cc1` [Compound 697], the IC50 was 0.1 to 1 µM.

Turning to `COc1ccc(OCCCC(=O)N[C@H](CN2CC[C@@H](F)C2)[C@H](O)c2ccc(OC(C)C)cc2)cc1` [Compound 445], the IC50 was in the range of 0.1 to 1 µM.

Take `COc1ccc(OCCC(=O)N[C@H](CN2CCC(F)(F)CC2)[C@H](O)c2ccc3c(c2)OCCO3)cc1` [Compound 627]: the IC50 lay in the range of 3 to 10 µM.

As for `CCCCCCCC(=O)N[C@H](CN1CCC[C@@H]1COC)[C@H](O)c1ccc2c(c1)OCCO2` [Compound 540], the IC50 was 3 to 10 µM.

Turning to `CCCCCCCC(=O)N[C@H](CN1CC[C@H](O)C1)[C@H](O)c1ccc2c(c1)OCCO2` [Compound 515], the IC50 is ≤ 0.1 µM.

Consider `CCCCCCCC(=O)N[C@H](CN1CCC[C@H]1C)[C@@H](O)c1ccc2c(c1)OCCO2` [Compound 530], for which the IC50 was in the range of 3 to 10 µM.
